Assay results: ChEMBL document CHEMBL3045094, “A cytotoxic agent from Strychnos nux-vomica and biological evaluation of its modified analogues” (Med Chem Res, 2012); call rule not given here
≈ marks a conversion by molar mass, not a printed value.

How the values were obtained:
Bacopa monnieri [1] = assay: Toxicity against Bacopa monnieri assessed as change in leaf colour at 50 ug/ml after 15 days by Bacopa sensor test; format: organism-based; conditions: in vivo, 360 h
Bacopa monnieri [2] = assay: Toxicity against Bacopa monnieri assessed as number of leaves at 50 ug/ml after 15 days by Bacopa sensor test (reference value: 6); format: organism-based; conditions: in vivo, 360 h
Bacopa monnieri [3] = assay: Toxicity against Bacopa monnieri assessed as number of roots at 50 ug/ml after 15 days by Bacopa sensor test (reference value: 2); format: organism-based; conditions: in vivo, 360 h
Bacopa monnieri [4] = assay: Toxicity against Bacopa monnieri assessed as shoot elongation at 50 ug/ml after 15 days by Bacopa sensor test (reference value: 0.8 cm); format: organism-based; conditions: in vivo, 360 h
Bacopa monnieri [5] = assay: Toxicity against Bacopa monnieri assessed as number of shoots at 50 ug/ml after 15 days by Bacopa sensor test (reference value: 2); format: organism-based; conditions: in vivo, 360 h
Caco-2 [6] = assay: Cytotoxic activity against Homo sapiens (human) Caco2 cells by clonogenic assay; format: functional, cell-based
Caco-2 [7] = assay: Cytotoxic activity against Homo sapiens (human) Caco2 cells incubated for 4 hr followed by compound wash-out measured after doubling time by MTT assay; format: functional, cell-based
COLO 320 [8] = assay: Cytotoxic activity against Homo sapiens (human) COLO320 cells by clonogenic assay; format: functional, cell-based
COLO 320 [9] = assay: Cytotoxic activity against Homo sapiens (human) COLO320 cells incubated for 4 hr followed by compound wash-out measured after doubling time by MTT assay; format: functional, cell-based
WRL68 [10] = assay: Cytotoxic activity against Homo sapiens (human) WRL68 cells incubated for 4 hr followed by compound wash-out measured after doubling time by MTT assay; format: functional, cell-based
WRL68 [11] = assay: Cytotoxic activity against Homo sapiens (human) WRL68 cells by clonogenic assay; format: functional, cell-based
PA-1 [12] = assay: Cytotoxic activity against Homo sapiens (human) PA1 cells incubated for 4 hr followed by compound wash-out measured after doubling time by MTT assay; format: functional, cell-based
PA-1 [13] = assay: Cytotoxic activity against Homo sapiens (human) PA1 cells by clonogenic assay; format: functional, cell-based
MCF7 [14] = assay: Cytotoxic activity against Homo sapiens (human) MCF7 cells by clonogenic assay; format: functional, cell-based
MCF7 [15] = assay: Cytotoxic activity against Homo sapiens (human) MCF7 cells incubated for 4 hr followed by compound wash-out measured after doubling time by MTT assay; format: functional, cell-based
WRL68 [16] = assay: Ratio of vinblastine IC50 to compound IC50 for Homo sapiens (human) WRL68 cells by MTT assay; format: functional
COLO 320 [17] = assay: Ratio of vinblastine IC50 to compound IC50 for Homo sapiens (human) COLO320 cells by MTT assay; format: functional
Caco-2 [18] = assay: Ratio of vinblastine IC50 to compound IC50 for Homo sapiens (human) Caco2 cells by MTT assay; format: functional
[19] = Homo sapiens, Caco-2, 4 h, read-out: IC50
[20] = Homo sapiens, COLO 320, 4 h, read-out: IC50
[21] = Homo sapiens, WRL68, 4 h, read-out: IC50
[22] = Homo sapiens, PA-1, 4 h, read-out: IC50
[23] = Homo sapiens, MCF7, 4 h, read-out: IC50

Row | SMILES | Activity (Bacopa monnieri [1]) | Activity (Bacopa monnieri [2]) | Activity (Bacopa monnieri [3]) | Activity (Bacopa monnieri [4]) | Activity (Bacopa monnieri [5]) | IC50 (Caco-2 [6]) | IC50 (Caco-2 [7]; [19]) | IC50 (COLO 320 [8]) | IC50 (COLO 320 [9]; [20]) | IC50 (WRL68 [10]; [21]) | IC50 (WRL68 [11]) | IC50 (PA-1 [12]; [22]) | IC50 (PA-1 [13]) | IC50 (MCF7 [14]) | IC50 (MCF7 [15]; [23]) | IC50 (Caco-2 [7]; caco-2) | further results
1 | COC(=O)C1=CO[C@@H](O[C@@H]2O[C@H](COC(=O)c3cccc([N+](=O)[O-])c3)[C@@H](OC(C)=O)[C@H](OC(C)=O)[C@H]2OC(C)=O)[C@@H]2[C@@H](C)[C@@H](OC(C)=O)C[C@H]12 | Non-toxic | 6 | 2 | 0.8 cm | 2 | 5.42 µg/mL (≈ 7.66 µM) | 1 µg/mL (≈ 1.41 µM) | 8.2 µg/mL (≈ 11.6 µM) | 0.44 µg/mL (≈ 0.622 µM) | 3.2 µg/mL (≈ 4.52 µM) | 6.5 µg/mL (≈ 9.19 µM) | 0.85 µg/mL (≈ 1.2 µM) | 2.65 µg/mL (≈ 3.74 µM) | 3.42 µg/mL (≈ 4.83 µM) | 1.25 µg/mL (≈ 1.77 µM) |  | 
2 | COC(=O)C1=CO[C@@H](O[C@@H]2O[C@H](CO)[C@@H](OC(C)=O)[C@H](OC(C)=O)[C@H]2OC(C)=O)[C@@H]2[C@@H](C)[C@@H](OC(C)=O)C[C@H]12 |  |  |  |  |  |  |  |  |  |  |  |  |  |  |  | Not Active | IC50 (COLO 320 [9]; colo 320): Not Active; IC50 (WRL68 [10]; wrl68): Not Active; IC50 (PA-1 [12]; pa-1): Not Active; IC50 (MCF7 [15]; mcf7): Not Active
3 | CCC(=O)OC[C@H]1O[C@@H](O[C@@H]2OC=C(C(=O)OC)[C@H]3C[C@H](OC(C)=O)[C@H](C)[C@@H]23)[C@H](OC(C)=O)[C@@H](OC(C)=O)[C@@H]1OC(C)=O | Non-toxic | 4 | 2 | 0.65 cm | 2 | 4.88 µg/mL (≈ 7.94 µM) | 2.85 µg/mL (≈ 4.64 µM) | 4.86 µg/mL (≈ 7.91 µM) | 0.85 µg/mL (≈ 1.38 µM) | 2.65 µg/mL (≈ 4.31 µM) | 8.4 µg/mL (≈ 13.7 µM) | 1.24 µg/mL (≈ 2.02 µM) | 2.85 µg/mL (≈ 4.64 µM) | 4.26 µg/mL (≈ 6.93 µM) | 1.88 µg/mL (≈ 3.06 µM) |  | 
4 | CCCCCCCCCCCC(=O)OC[C@H]1O[C@@H](O[C@@H]2OC=C(C(=O)OC)[C@H]3C[C@H](OC(C)=O)[C@H](C)[C@@H]23)[C@H](OC(C)=O)[C@@H](OC(C)=O)[C@@H]1OC(C)=O | Non-toxic | 6 | 3 | 0 cm | 2 | 1.24 µg/mL (≈ 1.67 µM) | 0.42 µg/mL (≈ 0.567 µM) | 0.24 µg/mL (≈ 0.324 µM) | 0.04 µg/mL (≈ 0.054 µM) | 0.85 µg/mL (≈ 1.15 µM) | 2.62 µg/mL (≈ 3.54 µM) | 0.15 µg/mL (≈ 0.202 µM) | 0.42 µg/mL (≈ 0.567 µM) | 0.75 µg/mL (≈ 1.01 µM) | 0.24 µg/mL (≈ 0.324 µM) |  | Ratio IC50 (WRL68 [16]): 2; Ratio IC50 (COLO 320 [17]): 13
5 | CCCCCCCCCCCCCC(=O)OC[C@H]1O[C@@H](O[C@@H]2OC=C(C(=O)OC)[C@H]3C[C@H](OC(C)=O)[C@H](C)[C@@H]23)[C@H](OC(C)=O)[C@@H](OC(C)=O)[C@@H]1OC(C)=O |  |  |  |  |  |  |  |  | 30 µg/mL (≈ 39 µM) | 58.5 µg/mL (≈ 76.1 µM) |  | 6.5 µg/mL (≈ 8.45 µM) |  |  | 24.6 µg/mL (≈ 32 µM) | Not Active | 
6 | CCCCCCCCCCCCCCCC(=O)OC[C@H]1O[C@@H](O[C@@H]2OC=C(C(=O)OC)[C@H]3C[C@H](OC(C)=O)[C@H](C)[C@@H]23)[C@H](OC(C)=O)[C@@H](OC(C)=O)[C@@H]1OC(C)=O |  |  |  |  |  |  |  |  |  |  |  |  |  |  |  | Not Active | IC50 (COLO 320 [9]; colo 320): Not Active; IC50 (WRL68 [10]; wrl68): Not Active; IC50 (PA-1 [12]; pa-1): Not Active; IC50 (MCF7 [15]; mcf7): Not Active
7 | C=CC(=O)OC[C@H]1O[C@@H](O[C@@H]2OC=C(C(=O)OC)[C@H]3C[C@H](OC(C)=O)[C@H](C)[C@@H]23)[C@H](OC(C)=O)[C@@H](OC(C)=O)[C@@H]1OC(C)=O |  |  |  |  |  |  |  |  |  |  |  |  |  |  |  | Not Active | IC50 (COLO 320 [9]; colo 320): Not Active; IC50 (WRL68 [10]; wrl68): Not Active; IC50 (PA-1 [12]; pa-1): Not Active; IC50 (MCF7 [15]; mcf7): Not Active
8 | COC(=O)C1=CO[C@@H](O[C@@H]2O[C@H](COC(=O)C=C(C)C)[C@@H](OC(C)=O)[C@H](OC(C)=O)[C@H]2OC(C)=O)[C@@H]2[C@@H](C)[C@@H](OC(C)=O)C[C@H]12 | Non-toxic | 6 | 2 | 0.4 cm | 2 | 6.2 µg/mL (≈ 9.68 µM) | 0.8 µg/mL (≈ 1.25 µM) | 2.84 µg/mL (≈ 4.43 µM) | 0.08 µg/mL (≈ 0.125 µM) | 1.2 µg/mL (≈ 1.87 µM) | 3.86 µg/mL (≈ 6.03 µM) | 0.65 µg/mL (≈ 1.01 µM) | 1.84 µg/mL (≈ 2.87 µM) | 4.65 µg/mL (≈ 7.26 µM) | 1 µg/mL (≈ 1.56 µM) |  | 
9 | COC(=O)C1=CO[C@@H](O[C@@H]2O[C@H](COC(=O)c3cc(OC)c(OC)c(OC)c3)[C@@H](OC(C)=O)[C@H](OC(C)=O)[C@H]2OC(C)=O)[C@@H]2[C@@H](C)[C@@H](OC(C)=O)C[C@H]12 | Non-toxic | 4 | 2 | 0.4 cm | 2 | 0.46 µg/mL (≈ 0.611 µM) | 0.06 µg/mL (≈ 0.0797 µM) | 0.12 µg/mL (≈ 0.159 µM) | 0.04 µg/mL (≈ 0.0531 µM) | 0.54 µg/mL (≈ 0.717 µM) | 1.2 µg/mL (≈ 1.59 µM) | 0.1 µg/mL (≈ 0.133 µM) | 0.45 µg/mL (≈ 0.598 µM) | 0.72 µg/mL (≈ 0.957 µM) | 0.25 µg/mL (≈ 0.332 µM) |  | Ratio IC50 (WRL68 [16]): 3; Ratio IC50 (COLO 320 [17]): 13; Ratio IC50 (Caco-2 [18]): 8
10 | COC(=O)C1=CO[C@@H](O[C@@H]2O[C@H](COC(c3ccccc3)(c3ccccc3)c3ccccc3)[C@@H](O)[C@H](O)[C@H]2O)[C@@H]2[C@@H](C)[C@@H](O)C[C@H]12 [6'-O-TRITYL LOGANIN] | Non-toxic | 6 | 2 | 0.4 cm | 2 | 2.54 µg/mL (≈ 4.01 µM) | 0.56 µg/mL (≈ 0.885 µM) | 1.4 µg/mL (≈ 2.21 µM) | 0.25 µg/mL (≈ 0.395 µM) | 1.86 µg/mL (≈ 2.94 µM) | 4.2 µg/mL (≈ 6.64 µM) | 0.65 µg/mL (≈ 1.03 µM) | 2.42 µg/mL (≈ 3.82 µM) | 2.8 µg/mL (≈ 4.43 µM) | 1 µg/mL (≈ 1.58 µM) |  | 
11 | COc1cccc2c1C(=O)c1c(O)c3c(c(O)c1C2=O)C[C@@](O)(C(=O)CO)C[C@@H]3O[C@H]1C[C@H](N)[C@H](O)[C@H](C)O1 [DOXORUBICIN] | Toxic | 2 | 0 | 0.2 cm | 1 |  |  |  |  |  |  |  |  |  |  |  | 
12 | COC(=O)C1=CO[C@@H](O[C@@H]2O[C@H](CO)[C@@H](O)[C@H](O)[C@H]2O)[C@@H]2[C@@H](C)[C@@H](O)C[C@H]12 [LOGANIN] | Non-toxic | 6 | 2 | 0.4 cm | 2 | 3.45 µg/mL (≈ 8.84 µM) | 1.28 µg/mL (≈ 3.28 µM) | 2.2 µg/mL (≈ 5.64 µM) | 1 µg/mL (≈ 2.56 µM) | 1.86 µg/mL (≈ 4.76 µM) | 3.2 µg/mL (≈ 8.2 µM) | 1.45 µg/mL (≈ 3.71 µM) | 4.85 µg/mL (≈ 12.4 µM) | 6.45 µg/mL (≈ 16.5 µM) | 4.85 µg/mL (≈ 12.4 µM) |  | 
13 | CC[C@]1(O)C[C@@H]2CN(CCc3c([nH]c4ccccc34)[C@@](C(=O)OC)(c3cc4c(cc3OC)N(C)[C@H]3[C@@](O)(C(=O)OC)[C@H](OC(C)=O)[C@]5(CC)C=CCN6CC[C@]43[C@@H]65)C2)C1 [VINBLASTINE] | Non-toxic | 6 | 2 | 0.6 cm | 2 | 2.8 µg/mL (≈ 3.45 µM) | 0.46 µg/mL (≈ 0.567 µM) | 1.6 µg/mL (≈ 1.97 µM) | 0.52 µg/mL (≈ 0.641 µM) |  |  | 0.03 µg/mL (≈ 0.037 µM) | 0.15 µg/mL (≈ 0.185 µM) |  |  |  | 
